Test results as given in the OligoGym collection.
Where “and” joins values, the source holds several entries; their conditions need not be identical. Equal values may be shown once. After the bases stand the sugars from the 5' end (letter, count) and the backbone: PS all phosphorothioate, else s phosphorothioate and o phosphodiester by linkage. Methylation of C is not given here. e = 2'-O-(2-methoxyethyl) (MOE); k = constrained ethyl (cEt); d = 2'-deoxy (DNA)

Molecular target: IRF4
Settings: ASO

Sequence | target mRNA inhibition (SK-MEL-28, 4 µM) | target mRNA inhibition (MM.1R, 1 µM) | other results
GAAACAGAGACGCGGT (sugars k3 d10 k3, PS) | 1% |  | 
GAAACCCTCATCACCG (sugars k3 d10 k3, PS) |  | -38% | 
GAAACGAGTTGACACA (sugars k3 d10 k3, PS) |  | 0% | 
GAAAGAGGCACCCTCC (sugars k3 d10 k3, PS) | 19% |  | 
GAAATATACCAGCTCA (sugars k3 d10 k3, PS) | 61% |  | 
GAAATGAACCCTAAGT (sugars k3 d10 k3, PS) |  | -5% | 
GAAATGGAGCATCCGC (sugars k3 d10 k3, PS) | 32% |  | 
GAAATGTCAAACCCTA (sugars k3 d10 k3, PS) | 71% |  | 
GAACACACCAGGTTAA (sugars k3 d10 k3, PS) | -2% |  | 
GAACGCACGGACGAAC (sugars k3 d10 k3, PS) | 18% |  | 
GAAGAATAAACACCCC (sugars k3 d10 k3, PS) | 52% |  | 
GAAGAGATCAGCTGCC (sugars k3 d10 k3, PS) | 42% |  | 
GAAGCATTTTATCATC (sugars k3 d10 k3, PS) |  | 4% | 
GAAGCATTTTATCATC (sugars kkddddddddddkeke, PS) |  | -7% | 
GAAGCATTTTATCATC (sugars kkdddddddddekeke, PS) |  | 6% | 
GAAGCATTTTATCATC (sugars kkdddddddddkdkdk, PS) |  | 1% | 
GAAGGATGATCAGCTT (sugars k3 d10 k3, PS) | 26% |  | 
GAAGTTTACACTGGAT (sugars e1 k2 d9 k2 e2, PS) |  | 48% | 
GAAGTTTACACTGGAT (sugars k3 d9 k3 e1, PS) |  | 45% | 
GAAGTTTACACTGGAT (sugars k3 d10 k3, PS) | 65% |  | 
GAAGTTTACACTGGAT (sugars kddddddddddkekek, PS) |  | 27% | 
GAAGTTTACACTGGAT (sugars kkkddddddddkekek, PS) |  | 52% | 
GAATAGAGGAATGGCG (sugars k3 d10 k3, PS) | 39% |  | 
GAATAGGAAGATATCA (sugars k3 d10 k3, PS) | 6% |  | 
GAATAGGACCCCTATC (sugars k3 d10 k3, PS) |  | -3% | 

Sequence | target mRNA inhibition (SK-MEL-28, 4 µM) | target mRNA inhibition (MM.1R, 1 µM) | other results
GAATTTCAGGAGCTAG (sugars k3 d10 k3, PS) | 61% |  | 
GAATTTCCATTGGAGG (sugars k3 d10 k3, PS) | 43% |  | 
GACAAGTGCTAGGATT (sugars k3 d10 k3, PS) | 61% |  | 
GACACTTTTAGAGAGG (sugars e1 k2 d9 k2 e2, PS) |  | 24% | 
GACACTTTTAGAGAGG (sugars k3 d9 k3 e1, PS) |  | 24% | 
GACACTTTTAGAGAGG (sugars kkdddddddddkekek, PS) |  | 17% | 
GACACTTTTAGAGAGG (sugars kkkdddddddddkeke, PS) |  | 24% | 
GACAGAAGATCTCTAC (sugars k3 d10 k3, PS) | 17% |  | 
GACAGAGAGTCCGACG (sugars k3 d10 k3, PS) | -1% |  | 
GACAGATGGCATGCGA (sugars k3 d10 k3, PS) |  | 16% | 
GACAGCATAGCATTAT (sugars k3 d10 k3, PS) | 72% and 77% |  | 
GACAGTGACTTGCATC (sugars k2 d9 e3 k2, PS) |  | 24% | 
GACAGTGACTTGCATC (sugars k3 d10 k3, PS) |  | 24% | 
GACAGTGACTTGCATC (sugars kkdddddddddekeke, PS) |  | 30% | 
GACATACCTACAAGCA (sugars k3 d10 k3, PS) | 50% |  | 
GACATTACTAGATTGT (sugars k3 d10 k3, PS) | 70% |  | 
GACCACGCCCCTCTCC (sugars k3 d10 k3, PS) | 55% |  | 
GACCAGCTTTTTCAAA (sugars k3 d10 k3, PS) | 38% |  | 
GACCATCTGATCCGGA (sugars k3 d10 k3, PS) |  | 2% | 
GACCTTTACTTCATTC (sugars k3 d10 k3, PS) | 52% |  | 
GACGAAAACAGCCGCC (sugars k3 d10 k3, PS) | 62% |  | 
GACTAACTCTCCTGTT (sugars k3 d10 k3, PS) | 17% |  | 
GACTATTAGATAAGTA (sugars k3 d10 k3, PS) | 29% |  | 
GACTTAACCCACATCA (sugars k3 d10 k3, PS) | -166% |  | 
GACTTAATTCTGGGTT (sugars k3 d10 k3, PS) | 35% |  | 

Sequence | target mRNA inhibition (SK-MEL-28, 4 µM) | target mRNA inhibition (MM.1R, 1 µM) | other results
GAGAATTCCAAACCTT (sugars k3 d10 k3, PS) | 76% | 15% | target mRNA inhibition (MM.1R, 0.0625 µM): 6%; target mRNA inhibition (MM.1R, 0.074 µM): 1%; target mRNA inhibition (MM.1R, 0.222 µM): 13%; target mRNA inhibition (MM.1R, 0.25 µM): 5%; target mRNA inhibition (MM.1R, 0.666 µM): 38%; target mRNA inhibition (MM.1R, 2 µM): 69%; target mRNA inhibition (MM.1R, 4 µM): 55%
GAGAGCTACGCAATCT (sugars k3 d10 k3, PS) | 57% |  | 
GAGAGTAAACTTGGCT (sugars k3 d10 k3, PS) |  | 12% | 
GAGATAAGAAGCACTG (sugars k3 d10 k3, PS) | 44% |  | 
GAGATACTTGTACTGT (sugars k3 d10 k3, PS) |  | 49% and 57% | target mRNA inhibition (MM.1R, 0.0625 µM): -2%; target mRNA inhibition (MM.1R, 0.25 µM): 18%; target mRNA inhibition (MM.1R, 4 µM): 84%
GAGATATAAATAGCTG (sugars k3 d10 k3, PS) | 51% |  | 
GAGCAAATTGAGACCA (sugars k3 d10 k3, PS) | 55% |  | 
GAGCAGAACGAGGTAA (sugars k3 d10 k3, PS) | 55% |  | 
GAGCATCACTATTAAG (sugars k3 d10 k3, PS) |  | 14% | 
GAGCCGCCACATCAGC (sugars k3 d10 k3, PS) | 23% |  | 
GAGCCTGGGACTCAGG (sugars k4 d8 k4, PS) | 19% |  | 
GAGCGGCCGTGGTGAG (sugars k3 d10 k3, PS) | 41% |  | 
GAGGAACTAGTCGACA (sugars k3 d10 k3, PS) | 39% |  | 
GAGGAAGCATAGAACA (sugars k3 d10 k3, PS) | 18% |  | 
GAGGACCACGCCCCTC (sugars k3 d10 k3, PS) | -3% |  | 
GAGGACTTATTTGTGG (sugars k3 d10 k3, PS) |  | 22% | 
GAGGGTCTGGAAACTC (sugars k4 d8 k4, PS) | 8% |  | 
GAGGTAAATCTTCACT (sugars k3 d10 k3, PS) | 70% |  | 
GAGGTTTTCCTAAATA (sugars k3 d10 k3, PS) | 69% |  | target mRNA inhibition (SK-MEL-28, 0.185 µM): 20%; target mRNA inhibition (SK-MEL-28, 5 µM): 75%; target mRNA inhibition (SK-MEL-28, 15 µM): 89%
GAGTTGTACAGGACAG (sugars k3 d10 k3, PS) |  | 51% and 52% | 
GATAACGAGGTGCCTT (sugars k3 d10 k3, PS) | 18% |  | 
GATAAGGCACTACTTC (sugars k3 d10 k3, PS) | 47% |  | 
GATACAAAACGGACTG (sugars k3 d10 k3, PS) | 44% |  | 
GATACAGCAGGCACTT (sugars k3 d10 k3, PS) | 63% |  | 
GATATAAATAGCTGTT (sugars k4 d8 k4, PS) | 61% |  | target mRNA inhibition (MM.1R, 0.074 µM): 5% and 3%; target mRNA inhibition (MM.1R, 0.222 µM): 6% and 15%; target mRNA inhibition (MM.1R, 0.666 µM): 12%; target mRNA inhibition (MM.1R, 2 µM): 24% and 19%; target mRNA inhibition (SK-MEL-28, 0.185 µM): 2% and 6% and 10%; target mRNA inhibition (SK-MEL-28, 5 µM): 57% and 76%

Sequence | target mRNA inhibition (SK-MEL-28, 4 µM) | target mRNA inhibition (MM.1R, 1 µM) | other results
GATATCAAAGATCTCC (sugars k3 d10 k3, PS) | 57% |  | 
GATCACTCAGAATTTT (sugars k3 d10 k3, PS) | 50% |  | 
GATCATAAAGGACAAT (sugars k3 d10 k3, PS) | 30% |  | 
GATCTCCATGGTGCAG (sugars k3 d10 k3, PS) |  | 22% and 12% | 
GATGACTCCATGAGGT (sugars k3 d10 k3, PS) | 67% |  | 
GATGCTCAGAATGAAG (sugars k3 d10 k3, PS) | 43% |  | 
GATGGGACCGCCCTGG (sugars k3 d10 k3, PS) |  | -13% | 
GATGTATACCAACGAC (sugars k3 d10 k3, PS) | 68% |  | 
GATGTGATAGCTGAGC (sugars kddddddddddkekek, PS) |  | 50% | 
GATGTGATAGCTGAGC (sugars kdddddddddkekeke, PS) |  | 18% | 
GATTATATACTGGTTG (sugars k2 d9 e3 k2, PS) |  | 42% | 
GATTATATACTGGTTG (sugars k3 d10 k3, PS) | 59% |  | 
GATTATATACTGGTTG (sugars kkdddddddddekeke, PS) |  | 46% | 
GATTGATGTGATAGCT (sugars k3 d10 k3, PS) | 56% |  | 
GATTTCTAGGTAATCT (sugars k3 d10 k3, PS) | 31% |  | 
GCAAAAAATATAACGG (sugars k3 d10 k3, PS) | 47% |  | 
GCAAAAGAAACGAGTT (sugars k3 d10 k3, PS) | 8% |  | 
GCAAGATGACTCCATG (sugars k3 d10 k3, PS) | 63% |  | 
GCAAGCTATATTAAAG (sugars k3 d10 k3, PS) | 71% | -19% | target mRNA inhibition (MM.1R, 0.0625 µM): 1%; target mRNA inhibition (MM.1R, 0.074 µM): 17%; target mRNA inhibition (MM.1R, 0.222 µM): 26%; target mRNA inhibition (MM.1R, 0.25 µM): 1%; target mRNA inhibition (MM.1R, 0.666 µM): 41%; target mRNA inhibition (MM.1R, 2 µM): 82%; target mRNA inhibition (MM.1R, 4 µM): 1%
GCAAGCTGAATGCTCT (sugars k3 d10 k3, PS) | 53% |  | 
GCAAGTCTACAGCCCC (sugars k3 d10 k3, PS) |  |  | target mRNA inhibition (MM.1R, 0.0625 µM): -7%; target mRNA inhibition (MM.1R, 0.25 µM): 7%; target mRNA inhibition (MM.1R, 4 µM): 68%
GCAAGTGGAGGTCTTT (sugars k3 d10 k3, PS) | 74% and 79% |  | 
GCAAGTGTCTAAAGTC (sugars k3 d10 k3, PS) |  | 49% and 53% | 
